According to patent US20040200144A1, “Plant growth regulator and a method of producing the regulator” (Dainichiseika Color & Chemicals Mfg. Co., Ltd., priority 2003, published 2004):

Key:
Assay type in all cases: in vivo
squash young plants = test: Dwarfing test of squash young plant; details: for Plant Height / Dwarfing Rate: 5 ml per cell on 7th day, measured 20th day; for Dwarfing Rate: vs comparative group
Method: After seeding, the pot was placed in the same greenhouse as described above to sprout. Subsequently, on the 5th day, the cinnamic aqueous acid solutions were added to the nursery soil in the joint pots. One of the joint pots (24 cells) was prepared as a 0.05% cinnamic acid aqueous solution addition group, and 5 ml of the 0.05% cinnamic acid aqueous solution was added to the nursery soil of each cell. Another one of the join pots was prepared as a 0.2% cinnamic acid aqueous solution addition group, and 5 ml of the 0.2% cinnamic acid aqueous solution was added to the nursery soil of each cell. […] Subsequently, the cultivation of carrot young plants in each group was continued under general conditions. On the 27th day, the heights of young plants in each group were measured, the dwarfing rate (%) was calculated, and the dwarfing effect of cinnamic acid aqueous solution on carrot young plants was examined. From the results in Table 5, it became evident that the 0.05% and 0.2% cinnamic acid aqueous solutions are effective in dwarfing carrot young plants. In the same way as in Example 5 except that seeds of cauliflower were sowed, the cinnamic acid solutions were added to the nursery soil in the joint pot on the 4th day, and that heights of young plants in each group were measured on the 20th day, the dwarfing effect of cinnamic acid aqueous solution on cauliflower young plants was examined. From the results in Table 12, it became evident that the cinnamic acid aqueous solutions are effective in dwarfing cauliflower young plants. In the same way as in Example 12 except that seeds of tomato were sowed, and that the cinnamic acid solutions were added to the nursery soil of the joint pot on the 7th day, the dwarfing effect of cinnamic acid aqueous solution on tomato young plants was examined. From the results in Table 17, it became evident that the cinnamic acid aqueous solutions are effective in dwarfing tomato young plants. In the same way as in Example 17 except that seeds of squash were sowed, the dwarfing effect of cinnamic acid aqueous solution on squash young plants was examined. From the results in Table 20, it became evident that the cinnamic acid aqueous solutions are effective in dwarfing squash young plants.

cabbage young plants = test: Dwarfing test of cabbage young plant; details: for Plant Height / Dwarfing Rate: 5 ml per cell on 4th day, measured 22nd day; for Dwarfing Rate: vs comparative group
Method: Dwarfing rate (%)=[(the plant height of the comparative group)−(the plant height of an addition group)/the plant height of the comparative group]×100
18.4 g of potassium hydroxide was dissolved in 400 ml of distilled water at 20° C., 50 g of cinnamic acid was added to the potassium hydroxide solution and dissolved by stirring, the resultant solution was diluted with distilled water until the total volume of solution was 500 ml, and thus 10% cinnamic acid aqueous solution (pH 8.8) was prepared. The aqueous solution was further diluted with distilled water 100 times or 33.3 times, and 0.1% cinnamic acid aqueous solution and 0.3% cinnamic acid aqueous solution were prepared, respectively.
Nursery soil for house use was filled into the same polyethylene joint pot as described above, water was sufficiently given to the soil, and seeds of cabbage were sowed. After seeding, the pot was placed in the same greenhouse as described above to sprout. Subsequently, on the 4th day, the cinnamic acid aqueous solutions were added to the nursery soil in the joint pot. Among 36 cells, 12 cells were prepared as a 0.1% cinnamic acid aqueous solution addition group, and 5 ml of the 0.1% cinnamic acid aqueous solution in Example 3 was added to the nursery soil of each cell. Another 12 cells were prepared as 0.3% cinnamic acid aqueous solution addition group, and 5 ml of the 0.3% cinnamic acid aqueous solution in Example 3 was added to the nursery soil of each cell. Remaining 12 cells were prepared as a comparative group in which 5 ml of water is added to each cell, instead of the cinnamic acid aqueous solution. Subsequently, the cultivation of cabbage young plants in each group was continued under general conditions. On the 22nd day, the heights of young plants in each group were measured, the dwarfing rate (%) was calculated, and the dwarfing effect of cinnamic acid aqueous solution on cabbage young plants was examined.

geranium young plants = test: Dwarfing test of geranium young plant; details: for Plant Height / Dwarfing Rate: 100 ml per pot on 3rd day, measured 44th day; for Dwarfing Rate: vs comparative group
Excerpt: Dwarfing rate (%)=[(the plant height of the comparative group)−(the plant height of an addition group)/the plant height of the comparative group]×100 In addition, “plant height” in all the tables below was an average of heights from a surface of the soil of a pot used in each test to a head portion of the plant. 160 g of cinnamic acid, 80 g of dispersant (lignin sulfonic sodium) and 293 g of water were mixed, 1,800 g of glass beads (with diameters of 1 to 1.25 mm) were further added, the resultant was added into a vessel of a dispersion apparatus (RM test sand mill with six parallel barrels) and underwent dispersion processing at 120 rpm for three hours, and 30% cinnamic acid dispersion (with the average diameter of cinnamic acid of 0.3 μm) was prepared. The dispersion was diluted with distilled water 300 times or 3,000 times, and thus 0.1% cinnamic acid dispersion and 0.01% cinnamic acid dispersion were prepared, respectively. 30 pots of geranium young plants each with 10 to 12 leaves and a height of 7 cm ware purchased, and placed in a built-up indoor aluminum greenhouse (440×840×1500 mm) at 25° C. On the 3rd day, the cinnamic dispersions as described above were added to the geranium pots. Among 30 pots, 10 pots were prepared as a 0.01% cinnamic acid dispersion addition group, and 100 ml of the 0.01% cinnamic acid dispersion was added to the nursery soil of each pot. Another 10 pots were prepared as a 0.1% cinnamic acid dispersion addition group, and 100 ml of the 0.1% cinnamic acid dispersion was added to the nursery soil of each pot. Remaining 10 pots were prepared as a comparative group, and instead of the cinnamic dispersion, 100 ml of water was added to each pot. Then, the cultivation was continued on the pots in each group under general conditions. The cultivation was continued on geraniums of the pots in each group, and on the 24th day, geraniums in each group started blooming. The cultivation was further continued. On the 44th day after the placement, heights of geraniums of pots in each group were measured, the dwarfing rate (%) was calculated, and the dwarfing effect of cinnamic acid dispersion on geranium young plants was examined. From the results in Table 2, it became evident that the cinnamic acid dispersions are effective in dwarfing geranium young plants.

## O=C(O)C=Cc1ccccc1 [cinnamic acid]
Squash young plants; 0.05% aqueous solution
  Plant Height: 6.3 cm
  Dwarfing Rate: 27.6%
Squash young plants; 0.2% aqueous solution
  Plant Height: 4.3 cm
  Dwarfing Rate: 50.6%
Squash young plants; squash young plants, 0.05% and 0.2% aqueous solutions
  dwarfing effect: effective
Cabbage young plants; 0.1% aqueous solution
  Plant Height: 7.9 cm
  Dwarfing Rate: 14.1%
Cabbage young plants; 0.3% aqueous solution
  Plant Height: 6.1 cm
  Dwarfing Rate: 33.7%
Cabbage young plants; cabbage young plants, 0.1% and 0.3% aqueous solutions
  dwarfing effect: effective
Geranium young plants; 0.01% dispersion
  Plant Height: 13.5 cm
  Dwarfing Rate: 12.9%
Geranium young plants; 0.1% dispersion
  Plant Height: 6.1 cm
  Dwarfing Rate: 60.6%
Geranium young plants; geranium young plants, 0.01% and 0.1% dispersions
  dwarfing effect: effective
